Data reported in patent publication US20120100072A1, “PET IMAGING OF FIBROGENESIS” (GE HEALTHCARE LIMITED, priority 2009, published 2012).

Key:
[1] = molecular target: T1, membranes prepared from EA-Hy926 cells (integrin αvβ3) (Homo sapiens, UniProt P05106+P06756); test: Competitive 125I-echistatin binding to membranes prepared from EA-Hy926 cells; details: competition with 125I-echistatin, 1 hour at 37° C., read-out: affinity (inhibition constant)
T1 construct: membranes from the human endothelial adenocarcinoma cell line EA-Hy926 were prepared; endogenous in cells; host or cells: EA-Hy926 (human endothelial cell line), purified membrane fraction
Protocol: The inhibition constant was measured using a previously-described membrane binding assay (Indrevoll et al, Bioorg & Med Chem Lett, 2006, 16, 6190-6193). In brief, membranes from the human endothelial adenocarcinoma cell line EA-Hy926 were prepared and the Kd calculated for the purified membrane fraction. A competitive binding assay was then established to measure inhibition constants. ^125I-echistatin (GE Healthcare; Code IM304) was used as the labelled ligand and cold echistatin as a reference standard. A total of sixteen dilutions of cold test compound (either cold echistatin or cold PET tracer) were prepared and mixed with a combination of ^125I-echistatin and membrane prior to incubation for 1 hour at 37° C. Following several washes, the bound material was harvested on a filter using a Skatron micro harvester. The filterspots were finally excised and counted in a Packard γ-counter.

rat livers = type: in vivo
Protocol: Outbred male Sprague Dawley rats (180-200 g; Charles River) were used in all bile duct ligation (BDL) and sham studies. After 6 days acclimatization rats were divided into 2 groups (BDL group and sham group). For the BDL animals, the abdomen was shaved and swabbed with betadine solution followed by 5 mg/kg carprofen subcutaneously (s.c.) and 5 mg/kg bupronorphine s.c. and under Isoflurane anaesthesia a mid-line laparotomy was performed and the common bile duct located. Bile duct was double ligated, the first ligation made between the junction of the hepatic ducts and the second above the entrance of the pancreatic ducts. The second group (sham animals) abdomen was shaved and swabbed with betadine solution followed by 5 mg/kg carprofen s.c. and 5 mg/kg bupronorphine s.c. Animals underwent sham surgery where bile duct was manipulated and a suture passed under the bile duct. Before closing 2-3 ml saline was administered into the peritoneum of each animal. […] Animals were closely monitored for the duration of the experiment.
For assessment of PET Tracer 1 in the BDL rat model, static PET images were acquired longitudinally (imaged at 60-90 minutes post-injection) at days 2, 5, 9, 15 and 30 post bile duct ligation surgery or sham surgery. […] Data was analysed using Asipro and Amide software. […]

alcoholic liver fibrosis = details: baboons; cited from earlier work

Ki [1] [nM]	Molecule	difference in uptake between BDL liver and sham (rat livers; day 30 post surgery)	difference in liver retention between BDL and sham operated animals (rat livers; days 2-15 post surgery (p<0.05))	effect on alcoholic liver fibrosis (alcoholic liver fibrosis)
5 to 10	N=C(N)NCCC[C@@H]1NC(=O)[C@@H]2CSSC[C@H](NC(=O)[C@H](CC(=O)O)NC(=O)CNC1=O)C(=O)N[C@@H](Cc1ccccc1)C(=O)N[C@H](C(=O)NCCOCCOCCOCCNC(=O)COCC(N)=O)CSCC(=O)N[C@@H](CCCCNC(=O)COCC(=O)NCCOCCOCCOCCOCCOCCNC(=O)CO/N=C/c1ccc([18F])cc1)C(=O)N2 [PET Tracer 1]	no significant difference	significant difference	–
–	Polyenephosphatidylcholine [Polyenephosphatidylcholine (PPC)]	–	–	prevented alcoholic liver fibrosis
